From patent publication US20240360175A1, “PEPTIDE DERIVATIVES AND RELATED USES AS OREXIN AGONISTS” (Centessa Pharmaceuticals (UK) Limited, priority 2021, published 2024) come the findings set out here.

Numbered stars: 1 amine (or outer) side, 2 acyl side, 3 side chain; on linkers, the order of the positions; unused ones are H or OH. Square brackets hold non-standard residues; d marks the D form. Peptide text beside a SMILES is read from it. * marks the point of attachment. Malonyl(2,2-Me2,histaminyl) = CC(C)(C(=O)NCCc1cnc[nH]1)C(=O)*; Gly(N-CH2CH2(4-MeOPh)) = COc1ccc(CCNCC(=O)O)cc1; hArg(Et2) = CCN=C(NCC)NCCCC[C@H](N)C(=O)O; Phe(3-Br) = N[C@@H](Cc1cccc(Br)c1)C(=O)O; X1 = O=C(CN(CCc1ccc2ccccc2c1)[*:1])[*:2]; X2 = O=C([C@@H](N[*:1])c1cccc(O)c1)[*:2]; X6 = O=C(CN(CCc1cccc2ccccc12)[*:1])[*:2]; Phg(4-OMe) = COc1ccc([C@H](N)C(=O)O)cc1; X3 = NCCc1cccc(CCN(CC(=O)[*:2])[*:1])c1; Gly(NCH2CH2Ph) = O=C(O)CNCCc1ccccc1; PEG6 = NCCOCCOCCOCCOCCOCCOCCC(=O)O; Hyp = O=C(O)[C@@H]1C[C@@H](O)CN1; Hpg = N[C@H](C(=O)O)c1ccc(O)cc1; NMeN = CN[C@@H](CC(N)=O)C(=O)O; X5 = COCCOCCOCCOCCOCCOCCC(=O)*; Aoc(2) = CCCCCC[C@H](N)C(=O)O; Phg = N[C@H](C(=O)O)c1ccccc1; Nle = CCCC[C@H](N)C(=O)O

Assay [1] concerns the target T1, human orexin type 1 receptor (hOX1R) (Homo sapiens, UniProt O43613).
T1 construct: expressed in transfected cells
T1 sequence (O43613 1-425): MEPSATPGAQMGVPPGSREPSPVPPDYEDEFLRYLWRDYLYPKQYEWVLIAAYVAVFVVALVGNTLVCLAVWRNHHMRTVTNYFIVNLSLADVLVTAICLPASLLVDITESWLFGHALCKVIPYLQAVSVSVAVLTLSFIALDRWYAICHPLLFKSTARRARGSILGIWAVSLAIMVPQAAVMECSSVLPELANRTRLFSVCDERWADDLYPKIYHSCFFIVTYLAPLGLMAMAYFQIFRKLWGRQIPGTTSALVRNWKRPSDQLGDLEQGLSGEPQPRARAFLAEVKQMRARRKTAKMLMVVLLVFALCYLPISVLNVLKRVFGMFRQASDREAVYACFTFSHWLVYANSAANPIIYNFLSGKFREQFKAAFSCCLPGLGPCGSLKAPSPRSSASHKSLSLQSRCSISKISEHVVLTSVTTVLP
Put plainly: Measurement of orexin type 1 receptor agonist activity (FLIPR TETRA intracellular Ca2+ fluorescence). The class given is cell-based. As to conditions: CHO cells expressing hOX1R; agonist activity, Ca2+ fluorescence; read-out: hOX1 pEC50 (converted). How it is done: (§1) Stable cell line generation. Obtainment of cells stably expressing either human orexin type 2 or human orexin type 1 receptor: to obtain a stable cell line the Orexin receptor cDNA was inserted into pcDNA3.1(+) plasmid vector and clones identified by G418 drug resistance selection. […] A single clone for OX2R—CHO and OX1R—CHO were grown in bulk and frozen to generate a cell bank for routine screening.
(§2) Measurement of orexin type 1 receptor agonist activity. Chinese hamster ovary (CHO) cells expressing human orexin type 1 receptor (hOX1R) were seeded in each well of 384 well black clear bottom plates (BD Flacon) at 10,000 cells per well and cultured for 24 h in an Ham's F12 (Gibco) medium containing 10% fetal calf serum (Sigma Aldrich) under the conditions of 37° C., 5% CO2. After removal of the medium, 50 μL of assay buffer 1 (0.1% bovine serum albumin (Sigma Aldrich), 20 mM HEPES (Molecular Dimensions), […] probenecid (Sigma Aldrich), 1× Calcium 5 dye (Molecular Devices) in Hank's balanced salt solution (Invitrogen)) was added, and the cells were incubated for 60 min under the conditions of 37° C., 5% CO2. A test peptide was dissolved in dimethyl sulfoxide (Sigma Aldrich) to 1 mM, and then diluted with assay buffer 2 (20 mM HEPES, Hank's balanced salt solution, 0.1% bovine serum albumin). For the reaction, a test peptide solution (10 μl) was added using Fluorescent Imaging Plate Reader TETRA (FLIPR TETRA: manufactured by Molecular Devices), a fluorescence value (excitation wavelength 488 nm, measurement wavelength 570 nm) of each well was measured every one second for 2 min, and the agonist activity was determined using the area of the fluorescence value as an indicator of intracellular Ca^2+ concentration. The agonist activity of the test peptide was calculated assuming that the fluorescence value of the well added with only the dilution buffer was 0% and the fluorescence value of the well added with 10 nM human orexin A (Tocris) buffer was 100%. As used herein, Emax indicates the value at 1 μM concentration when orexin A is converted to a full agonist (maximum value of agonist activity: 100%).

Assay [2] concerns the target T2, human orexin type 2 receptor (hOX2R) (Homo sapiens, UniProt O43614).
T2 construct: expressed in transfected cells
T2 sequence (O43614 1-444): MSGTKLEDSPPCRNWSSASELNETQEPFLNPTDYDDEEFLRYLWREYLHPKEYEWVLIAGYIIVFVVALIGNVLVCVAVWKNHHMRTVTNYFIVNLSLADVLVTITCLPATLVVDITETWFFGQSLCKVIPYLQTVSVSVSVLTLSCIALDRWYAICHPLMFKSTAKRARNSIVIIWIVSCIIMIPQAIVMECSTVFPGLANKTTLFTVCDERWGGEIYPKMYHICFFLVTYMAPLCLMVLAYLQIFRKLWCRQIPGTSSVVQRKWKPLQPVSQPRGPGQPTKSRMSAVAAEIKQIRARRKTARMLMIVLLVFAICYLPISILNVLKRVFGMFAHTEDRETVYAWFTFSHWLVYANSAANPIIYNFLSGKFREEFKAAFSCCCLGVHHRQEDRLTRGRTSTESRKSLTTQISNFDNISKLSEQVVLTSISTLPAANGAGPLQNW
Put plainly: Measurement of orexin type 2 receptor agonist activity (FLIPR TETRA intracellular Ca2+ fluorescence). Type of assay: cell-based. The note with it: CHO cells expressing hOX2R; agonist activity, Ca2+ fluorescence; read-out: hOX2 pEC50 (converted). How it is done: as §1
as §2, with “type 2” for “type 1”, “receptor (hOX2R)” for “receptor (hOX1R) were”

As to `CCCCCC[C@H](NC(=O)[C@@H](NC(=O)[C@H](CC(C)C)NC(=O)[C@@H](NC(=O)CNC(=O)[C@@H](NC(=O)[C@H](C)NC(=O)[C@H](Cc1c[nH]cn1)NC(=O)[C@H](CC(N)=O)NC(=O)CN(CCc1ccccc1)C(=O)[C@@H](N)CCCCN/C(=N/CC)NCC)c1ccc(OC)cc1)[C@@H](C)CC)[C@@H](C)O)C(N)=O` [Peptide 12] (H-[hArg(Et2)][Gly(NCH2CH2Ph)]NHA[Phg(4-OMe)]GILT[Aoc(2)]-NH2), the results for the EC50 in assay [1] and in assay [2] were over 10 nM and under 0.1 nM, respectively.

In the case of `CC[C@H](C)[C@H](NC(=O)CNC(=O)[C@@H](NC(=O)[C@H](C)NC(=O)[C@@H]1C[C@@H](O)CN1C(=O)[C@H](CC(N)=O)NC(=O)CN(CCc1ccc2ccccc2c1)C(=O)[C@@H](N)CCCNC(=N)N)c1ccccc1)C(=O)N[C@@H](CC(C)C)C(=O)N[C@H](C(=O)N[C@@H](Cc1cccc(Br)c1)C(N)=O)[C@@H](C)O` [Peptide 13] (H-R[X1]N[Hyp]A[Phg]GILT[Phe(3-Br)]-NH2), the EC50 is 1 to 10 nM in assay [1] and under 0.1 nM in assay [2].

For the compound `CCCCCC[C@H](NC(=O)[C@@H](NC(=O)[C@H](CC(C)C)NC(=O)[C@@H](NC(=O)CNC(=O)[C@@H](NC(=O)[C@H](C)NC(=O)[C@@H]1C[C@@H](O)CN1C(=O)[C@H](CC(N)=O)NC(=O)CN(CCc1ccccc1)C(=O)[C@@H](N)CCCNC(=N)N)c1ccccc1)[C@@H](C)CC)[C@@H](C)O)C(N)=O` [Peptide 14] (H-R[Gly(NCH2CH2Ph)]N[Hyp]A[Phg]GILT[Aoc(2)]-NH2; N-terminus assumed), the EC50 in assay [1] was over 10 nM; in assay [2] it was under 0.1 nM.

Regarding `CCCCCC[C@H](NC(=O)[C@@H](NC(=O)[C@H](CC(C)C)NC(=O)[C@@H](NC(=O)CNC(=O)[C@@H](NC(=O)[C@H](C)NC(=O)[C@@H]1C[C@@H](O)CN1C(=O)[C@H](CC(N)=O)NC(=O)CN(CCc1ccccc1)C(=O)[C@H](CCCCN/C(=N/CC)NCC)NC(=O)C(C)(C)C(=O)NCCc1cnc[nH]1)c1ccccc1)[C@@H](C)CC)[C@@H](C)O)C(N)=O` [Peptide 15] ({Malonyl(2,2-Me2,histaminyl)}-[hArg(Et2)][Gly(NCH2CH2Ph)]N[Hyp]A[Phg]GILT[Aoc(2)]-NH2), the EC50 in assay [1] was over 10 nM; in assay [2], under 0.1 nM.

In the case of `CC[C@H](C)[C@H](NC(=O)CNC(=O)[C@@H](NC(=O)[C@H](C)NC(=O)[C@@H]1C[C@@H](O)CN1C(=O)[C@H](CC(N)=O)NC(=O)CN(CCc1cccc2ccccc12)C(=O)[C@@H](N)CCCNC(=N)N)c1ccccc1)C(=O)N[C@@H](CC(C)C)C(=O)N[C@H](C(=O)N[C@@H](Cc1cccc(Br)c1)C(N)=O)[C@@H](C)O` [Peptide 16] (H-R[X6]N[Hyp]A[Phg]GILT[Phe(3-Br)]-NH2), the values for the EC50 in assay [1] and in assay [2] were 1 to 10 nM and under 0.1 nM, respectively.

Turning to `CCCCCC[C@H](NC(=O)[C@@H](NC(=O)[C@H](CC(C)C)NC(=O)[C@@H](NC(=O)CNC(=O)[C@@H](NC(=O)[C@H](C)NC(=O)[C@H](Cc1c[nH]cn1)NC(=O)[C@H](CC(N)=O)NC(=O)CN(CCc1ccccc1)C(=O)[C@@H](N)CCCCN/C(=N/CC)NCC)c1cccc(O)c1)[C@@H](C)CC)[C@@H](C)O)C(N)=O` [Peptide 17] (H-[hArg(Et2)][Gly(NCH2CH2Ph)]NHA[X2]GILT[Aoc(2)]-NH2), the EC50 in assay [1] is over 10 nM; in assay [2], under 0.1 nM.

For `CCCCCC[C@H](NC(=O)[C@@H](NC(=O)[C@H](CC(C)C)NC(=O)[C@@H](NC(=O)CNC(=O)[C@@H](NC(=O)[C@H](C)NC(=O)[C@H](Cc1c[nH]cn1)NC(=O)[C@H](CC(N)=O)NC(=O)CN(CCc1ccc(OC)cc1)C(=O)[C@@H](N)CCCCN/C(=N/CC)NCC)c1ccccc1)[C@@H](C)CC)[C@@H](C)O)C(N)=O` [Peptide 18] (H-[hArg(Et2)][Gly(N-CH2CH2(4-MeOPh))]NHA[Phg]GILT[Aoc(2)]-NH2), the EC50 was over 10 nM in assay [1] and under 0.1 nM in assay [2].

In the case of `CCCCCC[C@H](NC(=O)[C@@H](NC(=O)[C@H](CC(C)C)NC(=O)[C@@H](NC(=O)CNC(=O)[C@@H](NC(=O)[C@H](C)NC(=O)[C@@H]1C[C@@H](O)CN1C(=O)[C@H](CC(N)=O)N(C)C(=O)CN(CCc1cccc(CCN)c1)C(=O)[C@@H](N)CCCNC(=N)N)c1ccccc1)[C@@H](C)CC)[C@@H](C)O)C(N)=O` [Peptide 19] (H-R[X3][NMeN][Hyp]A[Phg]GILT[Aoc(2)]-NH2), the EC50 in assay [1] is over 10 nM; in assay [2], under 0.1 nM.

As for `CCCCCC[C@H](NC(=O)[C@@H](NC(=O)[C@H](CC(C)C)NC(=O)[C@@H](NC(=O)CNC(=O)[C@@H](NC(=O)[C@H](C)NC(=O)[C@H](Cc1c[nH]cn1)NC(=O)[C@H](CC(N)=O)NC(=O)CN(CCc1ccccc1)C(=O)[C@@H](N)CCCCN/C(=N/CC)NCC)c1ccc(O)cc1)[C@@H](C)CC)[C@@H](C)O)C(N)=O` [Peptide 20] (H-[hArg(Et2)][Gly(NCH2CH2Ph)]NHA[Hpg]GILT[Aoc(2)]-NH2), the EC50 in assay [1] is over 10 nM; in assay [2], under 0.1 nM.

As for `CCCC[C@H](NC(=O)[C@@H](NC(=O)[C@H](CC(C)C)NC(=O)[C@@H](NC(=O)CNC(=O)[C@@H](NC(=O)[C@H](C)NC(=O)[C@H](Cc1c[nH]cn1)NC(=O)[C@H](CC(N)=O)NC(=O)CN(CCc1ccccc1)C(=O)[C@H](CCCNC(=N)N)NC(=O)CCOCCOCCOCCOCCOCCOCCN)c1ccccc1)[C@@H](C)CC)[C@@H](C)O)C(N)=O` [Peptide 21] (H-[PEG6]R[Gly(NCH2CH2Ph)]NHA[Phg]GILT[Nle]-NH2), the EC50 in assay [1] was over 10 nM; in assay [2], under 0.1 nM.

Turning to `CCCCCC[C@H](NC(=O)[C@@H](NC(=O)[C@H](CC(C)C)NC(=O)[C@@H](NC(=O)CNC(=O)[C@@H](NC(=O)[C@H](C)NC(=O)[C@@H]1C[C@@H](O)CN1C(=O)[C@H](CC(N)=O)NC(=O)CN(CCc1ccccc1)C(=O)[C@H](CCCNC(=N)N)NC(=O)CCOCCOCCOCCOCCOCCOC)c1ccccc1)[C@@H](C)CC)[C@@H](C)O)C(N)=O` [Peptide 22] (X5-R[Gly(NCH2CH2Ph)]N[Hyp]A[Phg]GILT[Aoc(2)]-NH2), the figures for the EC50 in assay [1] and in assay [2] were over 10 nM and under 0.1 nM, respectively.
